Source: a polymer gas permeability compilation

CH4 permeability [Barrer] | CO2 permeability [Barrer] | H2 permeability [Barrer] | N2 permeability [Barrer] | O2 permeability [Barrer] | SMILES
12000 | 26000 | 11000 | 5100 | 6600 | *C(=C(*)c1ccc2c(c1)C(C)(C)c1ccccc1-2)c1ccc(F)c(F)c1 (repeat unit)
0.07 | 2.91 | 12.2 | 0.13 | 0.6 | *c1ccc(C(C)(C)c2ccc(-c3nc4cc(-c5ccc6[nH]c(*)nc6c5)ccc4[nH]3)cc2)cc1 (repeat unit)
0.0692 | 2.65 | 9.33 | 0.104 | 0.586 | *c1ccc(C(C)(C)c2ccc(N3C(=O)c4ccc(Oc5ccc(Oc6ccc7c(c6)C(=O)N(*)C7=O)cc5)cc4C3=O)cc2)cc1 (repeat unit)
4.55 | 123 |  | 6.1 |  | *c1ccc(C(c2ccc(-c3nnc(*)o3)cc2)(C(F)(F)F)C(F)(F)F)cc1 (repeat unit)
27 | 520 | 360 | 23 | 85 | *c1ccc(C(c2ccc(-n3c(=O)c4cc5oc6cc7c(cc6oc5cc4c3=O)C3(CC(C)(C)c4cc5oc6cc8c(=O)n(*)c(=O)c8cc6oc5cc43)CC7(C)C)cc2)(C(F)(F)F)C(F)(F)F)cc1 (repeat unit)
0.611 | 22.1 |  | 0.979 | 5.22 | *c1ccc(C(c2ccc(N3C(=O)c4ccc(-c5ccc6c(c5)C(=O)N(*)C6=O)cc4C3=O)cc2)(C(F)(F)F)C(F)(F)F)cc1 (repeat unit)
0.0576 | 2.5 | 6.61 | 0.069 | 0.398 | *c1ccc(Cc2ccc(-n3c(=O)c4cc5c(=O)n(*)c(=O)c5cc4c3=O)cc2)cc1 (repeat unit)
0.0532 | 1.58 | 6.35 | 0.0221 | 0.188 | *c1ccc(Cc2ccc(N3C(=O)c4ccc(-c5ccc6c(c5)C(=O)N(*)C6=O)cc4C3=O)cc2)cc1 (repeat unit)
0.4 | 13 |  | 0.59 | 2.94 | *c1ccc(N(c2ccc(N3C(=O)c4ccc(C(c5ccc6c(c5)C(=O)N(*)C6=O)(C(F)(F)F)C(F)(F)F)cc4C3=O)cc2)c2ccc(N(c3ccc(OC)cc3)c3ccc(OC)cc3)cc2)cc1 (repeat unit)
1.24 | 11.8 |  | 0.45 | 1.97 | *c1ccc(N(c2ccc(N3C(=O)c4ccc(C(c5ccc6c(c5)C(=O)N(*)C6=O)(C(F)(F)F)C(F)(F)F)cc4C3=O)cc2)c2ccc(N(c3ccccc3)c3ccccc3)cc2)cc1 (repeat unit)

Continued, compound first:

SMILES | CH4 permeability [Barrer] | CO2 permeability [Barrer] | H2 permeability [Barrer] | N2 permeability [Barrer] | O2 permeability [Barrer]
*/C(C)=C(/*)[Si](C)(C)CCCC (repeat unit) | 17 | 100 | 65 | 8 | 29
*C(=C(*)c1ccc2c(c1)C(C)(C)c1cc([Si](C)(C)C)ccc1-2)c1ccccc1 (repeat unit) | 10000 | 18000 | 8500 | 3400 | 5400
*c1ccc(-c2ccc(Oc3ccc(C4(c5ccc(Oc6ccc(-c7ccc(N8C(=O)c9ccc(Oc%10ccc(C(C)(C)c%11ccc(Oc%12ccc%13c(c%12)C(=O)N(*)C%13=O)cc%11)cc%10)cc9C8=O)cc7)cc6C(F)(F)F)cc5)c5ccccc5C(=O)N4c4ccccc4)cc3)c(C(F)(F)F)c2)cc1 (repeat unit) | 0.84 | 16.6 |  | 0.95 | 4.25
*c1ccc(-c2ccc(Oc3ccc4c(c3)C(C)(c3ccc(Oc5ccc(-c6ccc(-n7c(=O)c8cc9c(=O)n(*)c(=O)c9cc8c7=O)cc6)cc5C(F)(F)F)cc3)CC4(C)C)c(C(F)(F)F)c2)cc1 (repeat unit) | 1.52 | 44.7 |  | 2.36 | 12.2
*c1ccc(-c2ccc(Oc3ccc4c(c3)C3(CC4(C)C)CC(C)(C)c4ccc(Oc5ccc(-c6ccc(N7C(=O)c8ccc(Oc9ccc%10c(c9)C(=O)N(*)C%10=O)cc8C7=O)cc6)cc5C(F)(F)F)cc43)c(C(F)(F)F)c2)cc1 (repeat unit) | 0.41 | 22.6 |  | 1.12 | 13.1
*c1ccc(-c2nnc(-c3cccc(-c4nnc(*)n4-c4ccccc4)c3)n2-c2ccccc2)cc1 (repeat unit) | 0.09 | 5.2 |  | 0.14 | 1.16
*c1ccc(C(C)(C)c2ccc(N3C(=O)c4ccc(C(c5ccc6c(c5)C(=O)N(*)C6=O)(C(F)(F)F)C(F)(F)F)cc4C3=O)cc2)cc1 (repeat unit) | 0.698 | 30 |  | 1.34 | 7.5
*c1ccc(C(c2ccc(-c3nnc(*)n3-c3ccc(O)cc3)cc2)(C(F)(F)F)C(F)(F)F)cc1 (repeat unit) | 6.69 | 268 |  | 10.2 | 
*c1ccc(C(c2ccc(-n3c(=O)c4cc5c(=O)n(*)c(=O)c5cc4c3=O)cc2)(C(F)(F)F)C(F)(F)F)cc1 (repeat unit) | 0.78 | 27.7 | 59.1 | 1.39 | 7.1
*c1ccc(C(c2ccc(N3C(=O)c4ccc(C(c5ccc6c(c5)C(=O)N(*)C6=O)(C(F)(F)F)C(F)(F)F)cc4C3=O)cc2)(C(F)(F)F)C(F)(F)F)cc1 (repeat unit) | 1.6 | 63.9 | 108 | 3.36 | 16.2
*c1ccc(C(c2ccc(N3C(=O)c4ccc(Oc5cc(C)c(Oc6ccc7c(c6)C(=O)N(*)C7=O)c(C)c5C)cc4C3=O)cc2)(C(F)(F)F)C(F)(F)F)cc1 (repeat unit) | 1.7 | 54 | 77 | 1.9 | 9.3
*c1ccc(C2(c3ccc(*)cc3)c3ccccc3-c3ccccc32)cc1 (repeat unit) | 0.84 | 35.6 |  | 1.36 | 6.8
*c1ccc(Cc2ccc(N3C(=O)c4ccc(-c5ccc6c(c5)C(=O)N(*)C6=O)cc4C3=O)cc2Cl)c(Cl)c1 (repeat unit) | 0.0055 | 0.335 |  | 0.0107 | 0.0957
*c1ccc(Cc2ccc(N3C(=O)c4ccc(C(c5ccc6c(c5)C(=O)N(*)C6=O)(C(F)(F)F)C(F)(F)F)cc4C3=O)c(O)c2)cc1O (repeat unit) | 0.0562 | 4.85 |  | 0.168 | 1.22
*c1ccc(Cc2ccc(N3C(=O)c4ccc(Oc5ccc(Oc6ccc7c(c6)C(=O)N(*)C7=O)cc5)cc4C3=O)cc2)cc1 (repeat unit) | 0.0222 | 1.22 | 5.08 | 0.0357 | 0.242
*c1ccc(N(c2ccc(OC)cc2)c2ccc(N3C(=O)c4ccc(C(c5ccc6c(c5)C(=O)N(*)C6=O)(C(F)(F)F)C(F)(F)F)cc4C3=O)cc2)cc1 (repeat unit) | 0.5 | 16.8 |  | 0.89 | 4.28
